Reference: ChEMBL document CHEMBL3603774, “Novel 5-functionalized-pyrazoles: Synthesis, characterization and pharmacological screening” (Bioorg Med Chem Lett, 2015)
Values after ≈ are worked out from the molar mass of the structure shown.

Tested on: Bacillus cereus
Test: Antibacterial activity against Bacillus cereus MTCC 8372 at 50 ug/ml after 24 hrs by disc diffusion method
Format: functional
Conditions: MTCC 8372, 24 h, read-out: IZ

Structure (SMILES)	zone of inhibition at 50 µg/mL
CCOC(=O)c1c(-c2ccccc2)nn(-c2ccccc2)c1COc1ccccc1C=O	4 mm
CCOC(=O)c1c(-c2ccccc2)nn(-c2ccccc2)c1COc1ccc(C=O)cc1	3 mm

Tested on: Bacillus cereus
Test: Antibacterial activity against Bacillus cereus MTCC 8372 at 100 ug/ml after 24 hrs by disc diffusion method
Format: functional
Conditions: MTCC 8372, 24 h, read-out: IZ

Structure (SMILES)	zone of inhibition at 100 µg/mL
CCOC(=O)c1c(-c2ccccc2)nn(-c2ccccc2)c1COc1ccccc1C=O	16 mm
CCOC(=O)c1c(-c2ccccc2)nn(-c2ccccc2)c1COc1ccc(C=O)cc1	3 mm

Tested on: Staphylococcus aureus
Test: Antibacterial activity against Staphylococcus aureus MTCC 96 at 50 ug/ml after 24 hrs by disc diffusion method
Format: functional
Conditions: MTCC 96, 24 h, read-out: IZ

Structure (SMILES)	zone of inhibition at 50 µg/mL
CCOC(=O)c1c(-c2ccccc2)nn(-c2ccccc2)c1COc1ccccc1C=O	2 mm
CCOC(=O)c1c(-c2ccccc2)nn(-c2ccccc2)c1COc1ccc(C=O)cc1	2 mm

Tested on: Staphylococcus aureus
Test: Antibacterial activity against Staphylococcus aureus MTCC 96 at 100 ug/ml after 24 hrs by disc diffusion method
Format: functional
Conditions: MTCC 96, 24 h, read-out: IZ

Structure (SMILES)	zone of inhibition at 100 µg/mL
CCOC(=O)c1c(-c2ccccc2)nn(-c2ccccc2)c1COc1ccccc1C=O	12 mm
CCOC(=O)c1c(-c2ccccc2)nn(-c2ccccc2)c1COc1ccc(C=O)cc1	8 mm

Tested on: Escherichia coli
Test: Antibacterial activity against Escherichia coli MTCC 724 at 50 ug/ml after 24 hrs by disc diffusion method
Format: functional
Conditions: MTCC 724, 24 h, read-out: IZ

Structure (SMILES)	zone of inhibition at 50 µg/mL
CCOC(=O)c1c(-c2ccccc2)nn(-c2ccccc2)c1COc1ccccc1C=O	3 mm
CCOC(=O)c1c(-c2ccccc2)nn(-c2ccccc2)c1COc1ccc(C=O)cc1	10 mm

Tested on: Escherichia coli
Test: Antibacterial activity against Escherichia coli MTCC 724 at 100 ug/ml after 24 hrs by disc diffusion method
Format: functional
Conditions: MTCC 724, 24 h, read-out: IZ

Structure (SMILES)	zone of inhibition at 100 µg/mL
CCOC(=O)c1c(-c2ccccc2)nn(-c2ccccc2)c1COc1ccccc1C=O	8 mm
CCOC(=O)c1c(-c2ccccc2)nn(-c2ccccc2)c1COc1ccc(C=O)cc1	16 mm

Tested on: Klebsiella pneumoniae
Test: Antibacterial activity against Klebsiella pneumoniae MTCC 3384 at 50 ug/ml after 24 hrs by disc diffusion method
Format: functional
Conditions: MTCC 3384, 24 h, read-out: IZ

Structure (SMILES)	zone of inhibition at 50 µg/mL
CCOC(=O)c1c(-c2ccccc2)nn(-c2ccccc2)c1COc1ccccc1C=O	6 mm
CCOC(=O)c1c(-c2ccccc2)nn(-c2ccccc2)c1COc1ccc(C=O)cc1	8 mm

Tested on: Klebsiella pneumoniae
Test: Antibacterial activity against Klebsiella pneumoniae MTCC 3384 at 100 ug/ml after 24 hrs by disc diffusion method
Format: functional
Conditions: MTCC 3384, 24 h, read-out: IZ

Structure (SMILES)	zone of inhibition at 100 µg/mL
CCOC(=O)c1c(-c2ccccc2)nn(-c2ccccc2)c1COc1ccccc1C=O	9 mm
CCOC(=O)c1c(-c2ccccc2)nn(-c2ccccc2)c1COc1ccc(C=O)cc1	12 mm

Tested on: Aspergillus flavus
Test: Antifungal activity against Aspergillus flavus MTCC 873 at 50 ug/ml after 24 hrs by disc diffusion method
Format: functional
Conditions: MTCC 873, 24 h, read-out: IZ

Structure (SMILES)	zone of inhibition at 50 µg/mL
CCOC(=O)c1c(-c2ccccc2)nn(-c2ccccc2)c1COc1ccccc1C=O	10 mm
CCOC(=O)c1c(-c2ccccc2)nn(-c2ccccc2)c1COc1ccc(C=O)cc1	20 mm

Tested on: Aspergillus flavus
Test: Antifungal activity against Aspergillus flavus MTCC 873 at 100 ug/ml after 24 hrs by disc diffusion method
Format: functional
Conditions: MTCC 873, 24 h, read-out: IZ

Structure (SMILES)	zone of inhibition at 100 µg/mL
CCOC(=O)c1c(-c2ccccc2)nn(-c2ccccc2)c1COc1ccccc1C=O	5 mm
CCOC(=O)c1c(-c2ccccc2)nn(-c2ccccc2)c1COc1ccc(C=O)cc1	5 mm

Tested on: Aspergillus niger
Test: Antifungal activity against Aspergillus niger MTCC 281 at 50 ug/ml after 24 hrs by disc diffusion method
Format: functional
Conditions: MTCC 281, 24 h, read-out: IZ

Structure (SMILES)	zone of inhibition at 50 µg/mL
CCOC(=O)c1c(-c2ccccc2)nn(-c2ccccc2)c1COc1ccccc1C=O	10 mm
CCOC(=O)c1c(-c2ccccc2)nn(-c2ccccc2)c1COc1ccc(C=O)cc1	12 mm

Tested on: Bacillus cereus
Test: Antibacterial activity against Bacillus cereus MTCC 8372 after 24 hrs by microdilution method
Format: functional
Conditions: MTCC 8372, 24 h

MIC	Structure (SMILES)
45 µg/mL (≈ 106 µM)	CCOC(=O)c1c(-c2ccccc2)nn(-c2ccccc2)c1COc1ccccc1C=O
40 µg/mL (≈ 93.8 µM)	CCOC(=O)c1c(-c2ccccc2)nn(-c2ccccc2)c1COc1ccc(C=O)cc1

Tested on: Bacillus cereus
Test: Antibacterial activity against Bacillus cereus MTCC 8372 assessed as concentration required to completely destroy test microorganisms after 24 hrs
Format: functional
Conditions: MTCC 8372, 24 h

Structure (SMILES)	MBC
CCOC(=O)c1c(-c2ccccc2)nn(-c2ccccc2)c1COc1ccccc1C=O	250 µg/mL (≈ 586 µM)
CCOC(=O)c1c(-c2ccccc2)nn(-c2ccccc2)c1COc1ccc(C=O)cc1	210 µg/mL (≈ 492 µM)

Tested on: Staphylococcus aureus
Test: Antibacterial activity against Staphylococcus aureus MTCC 96 after 24 hrs by microdilution method
Format: functional
Conditions: MTCC 96, 24 h

MIC	Structure (SMILES)
55 µg/mL (≈ 129 µM)	CCOC(=O)c1c(-c2ccccc2)nn(-c2ccccc2)c1COc1ccccc1C=O
40 µg/mL (≈ 93.8 µM)	CCOC(=O)c1c(-c2ccccc2)nn(-c2ccccc2)c1COc1ccc(C=O)cc1

Tested on: Staphylococcus aureus
Test: Antibacterial activity against Staphylococcus aureus MTCC 96 assessed as concentration required to completely destroy test microorganisms after 24 hrs
Format: functional
Conditions: MTCC 96, 24 h

Structure (SMILES)	MBC
CCOC(=O)c1c(-c2ccccc2)nn(-c2ccccc2)c1COc1ccccc1C=O	220 µg/mL (≈ 516 µM)
CCOC(=O)c1c(-c2ccccc2)nn(-c2ccccc2)c1COc1ccc(C=O)cc1	210 µg/mL (≈ 492 µM)

Tested on: Escherichia coli
Test: Antibacterial activity against Escherichia coli MTCC 724 after 24 hrs by microdilution method
Format: functional
Conditions: MTCC 724, 24 h

MIC	Structure (SMILES)
65 µg/mL (≈ 152 µM)	CCOC(=O)c1c(-c2ccccc2)nn(-c2ccccc2)c1COc1ccccc1C=O
55 µg/mL (≈ 129 µM)	CCOC(=O)c1c(-c2ccccc2)nn(-c2ccccc2)c1COc1ccc(C=O)cc1

Tested on: Escherichia coli
Test: Antibacterial activity against Escherichia coli MTCC 724 assessed as concentration required to completely destroy test microorganisms after 24 hrs
Format: functional
Conditions: MTCC 724, 24 h

Structure (SMILES)	MBC
CCOC(=O)c1c(-c2ccccc2)nn(-c2ccccc2)c1COc1ccccc1C=O	250 µg/mL (≈ 586 µM)
CCOC(=O)c1c(-c2ccccc2)nn(-c2ccccc2)c1COc1ccc(C=O)cc1	235 µg/mL (≈ 551 µM)

Tested on: Klebsiella pneumoniae
Test: Antibacterial activity against Klebsiella pneumoniae MTCC 3384 after 24 hrs by microdilution method
Format: functional
Conditions: MTCC 3384, 24 h

MIC	Structure (SMILES)
85 µg/mL (≈ 199 µM)	CCOC(=O)c1c(-c2ccccc2)nn(-c2ccccc2)c1COc1ccccc1C=O
55 µg/mL (≈ 129 µM)	CCOC(=O)c1c(-c2ccccc2)nn(-c2ccccc2)c1COc1ccc(C=O)cc1

Tested on: Klebsiella pneumoniae
Test: Antibacterial activity against Klebsiella pneumoniae MTCC 3384 assessed as concentration required to completely destroy test microorganisms after 24 hrs
Format: functional
Conditions: MTCC 3384, 24 h

Structure (SMILES)	MBC
CCOC(=O)c1c(-c2ccccc2)nn(-c2ccccc2)c1COc1ccccc1C=O	260 µg/mL (≈ 610 µM)
CCOC(=O)c1c(-c2ccccc2)nn(-c2ccccc2)c1COc1ccc(C=O)cc1	230 µg/mL (≈ 539 µM)

Tested on: Aspergillus flavus
Test: Antifungal activity against Aspergillus flavus MTCC 873 after 48 hrs by microdilution method
Format: functional
Conditions: MTCC 873, 48 h

MIC	Structure (SMILES)
50 µg/mL (≈ 117 µM)	CCOC(=O)c1c(-c2ccccc2)nn(-c2ccccc2)c1COc1ccccc1C=O
40 µg/mL (≈ 93.8 µM)	CCOC(=O)c1c(-c2ccccc2)nn(-c2ccccc2)c1COc1ccc(C=O)cc1

Tested on: Aspergillus flavus
Test: Antifungal activity against Aspergillus flavus MTCC 873 assessed as concentration required to completely destroy test microorganisms after 24 hrs
Format: functional
Conditions: MTCC 873, 24 h

Structure (SMILES)	MFC
CCOC(=O)c1c(-c2ccccc2)nn(-c2ccccc2)c1COc1ccccc1C=O	270 µg/mL (≈ 633 µM)
CCOC(=O)c1c(-c2ccccc2)nn(-c2ccccc2)c1COc1ccc(C=O)cc1	275 µg/mL (≈ 645 µM)

Tested on: Aspergillus niger
Test: Antifungal activity against Aspergillus niger MTCC 281 after 48 hrs by microdilution method
Format: functional
Conditions: MTCC 281, 48 h

MIC	Structure (SMILES)
50 µg/mL (≈ 117 µM)	CCOC(=O)c1c(-c2ccccc2)nn(-c2ccccc2)c1COc1ccccc1C=O
45 µg/mL (≈ 106 µM)	CCOC(=O)c1c(-c2ccccc2)nn(-c2ccccc2)c1COc1ccc(C=O)cc1

Tested on: Aspergillus niger
Test: Antifungal activity against Aspergillus niger MTCC 281 assessed as concentration required to completely destroy test microorganisms after 24 hrs
Format: functional
Conditions: MTCC 281, 24 h

Structure (SMILES)	MFC
CCOC(=O)c1c(-c2ccccc2)nn(-c2ccccc2)c1COc1ccccc1C=O	225 µg/mL (≈ 528 µM)
CCOC(=O)c1c(-c2ccccc2)nn(-c2ccccc2)c1COc1ccc(C=O)cc1	260 µg/mL (≈ 610 µM)

Tested on: Aspergillus niger
Test: Antifungal activity against Aspergillus niger MTCC 281 at 100 ug/ml after 24 hrs by disc diffusion method
Format: functional
Conditions: MTCC 281, 24 h, read-out: IZ

Structure (SMILES)	zone of inhibition at 100 µg/mL
CCOC(=O)c1c(-c2ccccc2)nn(-c2ccccc2)c1COc1ccccc1C=O	10 mm
CCOC(=O)c1c(-c2ccccc2)nn(-c2ccccc2)c1COc1ccc(C=O)cc1	10 mm

Target: T1, Alpha amylase (Homo sapiens, UniProt P0DUB6)
T1 sequence (P0DUB6 whole entry): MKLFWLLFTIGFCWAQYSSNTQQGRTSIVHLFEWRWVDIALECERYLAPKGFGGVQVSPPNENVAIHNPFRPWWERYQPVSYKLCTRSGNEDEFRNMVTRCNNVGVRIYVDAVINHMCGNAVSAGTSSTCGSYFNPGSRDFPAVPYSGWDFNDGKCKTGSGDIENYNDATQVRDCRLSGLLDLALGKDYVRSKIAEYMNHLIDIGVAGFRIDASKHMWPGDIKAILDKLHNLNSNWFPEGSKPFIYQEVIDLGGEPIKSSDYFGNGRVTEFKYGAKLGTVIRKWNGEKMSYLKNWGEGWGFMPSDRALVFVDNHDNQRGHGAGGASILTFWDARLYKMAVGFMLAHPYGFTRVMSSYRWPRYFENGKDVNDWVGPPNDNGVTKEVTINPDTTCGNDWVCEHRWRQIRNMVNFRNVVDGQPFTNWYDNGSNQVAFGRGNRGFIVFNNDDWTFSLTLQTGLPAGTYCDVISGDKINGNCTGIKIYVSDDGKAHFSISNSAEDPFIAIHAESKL
Test: Inhibition of alpha-amylase (unknown origin) using starch as substrate after 30 mins by spectrophotometer analysis
Conditions: not given

IC50	Structure (SMILES)
40 µg/mL (≈ 93.8 µM)	CCOC(=O)c1c(-c2ccccc2)nn(-c2ccccc2)c1COc1ccccc1C=O
60 µg/mL (≈ 141 µM)	CCOC(=O)c1c(-c2ccccc2)nn(-c2ccccc2)c1COc1ccc(C=O)cc1

Target: not listed separately
Test: Inhibition of alpha-glucosidase (unknown origin) using p-nitrophenol glycoside as substrate after 30 mins by colorimetric analysis
Set-up: species or system Homo sapiens
Conditions: not given

IC50	Structure (SMILES)
40 µg/mL (≈ 93.8 µM)	CCOC(=O)c1c(-c2ccccc2)nn(-c2ccccc2)c1COc1ccccc1C=O
65 µg/mL (≈ 152 µM)	CCOC(=O)c1c(-c2ccccc2)nn(-c2ccccc2)c1COc1ccc(C=O)cc1
